# ChEMBL document CHEMBL5550146, “Design, synthesis, and biological evaluation of novel sesquiterpene lactone derivatives as PKM2 activators with potent anti-ulcerative colitis activities” (Eur J Med Chem, 2024)
# Active and inactive are the calls of the source. The rule behind the calls is not given here.
# What was measured:
# Th17 [1] = test: Inhibition of C57BL/6 mouse Th17 cell differentiation from CD4+ T cells assessed as reduction in IL-17a mRNA expression at 0.1 uM incubated for 96 hrs by qPCR analysis; type: functional, cell-based
# [2] = Inhibition of C57BL/6 mouse Regulatory T cells differentiation from CD4+ T cells assessed as frequency of CD4+ Foxp3+ Treg cells at 1 uM incubated for 96 hrs by flow cytometric analysis ( Rvb = 24.48 %); type: functional, Regulatory T cell; parameters: scale not given: the % may be the effect or the level left
# Th17 [3] = test: Inhibition of C57BL/6 mouse Th17 cell differentiation from CD4+ T cells assessed as reduction in Glut1 mRNA level; type: functional, cell-based
# [4] = Inhibition of C57BL/6 mouse Regulatory T cells differentiation from CD4+ T cells assessed as frequency of CD4+ Foxp3+ Treg cells at 0.3 uM incubated for 96 hrs by flow cytometric analysis ( Rvb = 24.48 %); type: functional, Regulatory T cell; parameters: scale not given: the % may be the effect or the level left
# [5] = Inhibition of C57BL/6 mouse Th17 cells differentiation from CD4+ T cells assessed as frequency of CD4+ IL-17A+ Th17 cells at 0.3 uM incubated for 96 hrs by flow cytometric analysis (reference value: 23.52 %); type: functional; parameters: scale not given: the % may be the effect or the level left
# Th17 [6] = test: Effect on PKM2 expression in cytoplasm of C57BL/6 mouse Th17 cells differentiated from CD4+ T cells at 0.1 to 1 uM incubated for 48 hrs by Western blot analysis; type: functional, cell-based; conditions: dose 0.1-1 µM
# Th17 [7] = test: Inhibition of C57BL/6 mouse Th17 cell differentiation from CD4+ T cells assessed as reduction in RORC mRNA expression at 0.1 uM incubated for 96 hrs by qPCR analysis; type: functional, cell-based
# Pyruvate kinase PKM [8] = target: T1, Pyruvate kinase PKM (Homo sapiens, UniProt P14618); test: Activation of recombinant human PKM2 incubated for 40 mins by pyruvate kinase assay
# Target sequence in this assay (P14618 whole entry): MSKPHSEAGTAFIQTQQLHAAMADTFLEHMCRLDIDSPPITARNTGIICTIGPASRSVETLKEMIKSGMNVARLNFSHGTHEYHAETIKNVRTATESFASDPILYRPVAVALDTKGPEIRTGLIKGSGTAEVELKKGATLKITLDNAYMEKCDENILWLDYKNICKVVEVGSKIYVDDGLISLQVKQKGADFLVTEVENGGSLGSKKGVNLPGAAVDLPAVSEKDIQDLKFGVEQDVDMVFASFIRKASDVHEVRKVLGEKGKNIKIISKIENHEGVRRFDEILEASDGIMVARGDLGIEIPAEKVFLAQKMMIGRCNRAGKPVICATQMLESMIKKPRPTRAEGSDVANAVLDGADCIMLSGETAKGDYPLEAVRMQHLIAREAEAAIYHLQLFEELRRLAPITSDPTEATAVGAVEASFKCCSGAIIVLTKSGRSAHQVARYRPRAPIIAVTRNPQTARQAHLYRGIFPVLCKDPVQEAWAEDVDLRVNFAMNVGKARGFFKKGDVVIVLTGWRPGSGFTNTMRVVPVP
# [9] = target: Pyruvate kinase PKM (Mus musculus) (UniProt P52480); test: Induction of thermal stabilization of PKM2 in C57BL/6 mouse CD4+ T cells at 1 uM incubated for 4 hrs at 58 to 64 degreeC by CETSA; type: cell-based; conditions: CD4+ T cell
# Regulatory T cell [10] = test: Inhibition of C57BL/6 mouse Regulatory T cells differentiation from CD4+ T cells assessed as change in IL-10 mRNA expression at 0.1 to 1 uM incubated for 96 hrs by qPCR analysis; type: functional, cell-based; conditions: dose 0.1-1 µM
# Th17 [11] = test: Inhibition of C57BL/6 mouse Th17 cell differentiation from CD4+ T cells assessed as reduction in HK2 mRNA level; type: functional, cell-based
# [12] = Inhibition of C57BL/6 mouse Regulatory T cells differentiation from CD4+ T cells assessed as frequency of CD4+ Foxp3+ Treg cells at 0.1 uM incubated for 96 hrs by flow cytometric analysis ( Rvb = 24.48 %); type: functional, Regulatory T cell; parameters: scale not given: the % may be the effect or the level left
# Pyruvate kinase PKM [13] = target: T1, Pyruvate kinase PKM; test: Binding affinity to PKM2 (unknown origin) assessed as dissociation constant by SPR analysis
# Target sequence in this assay (P14618 whole entry): as above
# Pyruvate kinase PKM [14] = target: T1, Pyruvate kinase PKM; test: Binding affinity to PKM2 (unknown origin) assessed as dissociation rate constant (Kd) at 3.125 to 50 uM by SPR analysis
# Target sequence in this assay (P14618 whole entry): as above
# Th17 [15] = test: Inhibition of C57BL/6 mouse Th17 cell differentiation from CD4+ T cells assessed as decrease in glucose consumption incubated for 48 hrs by colorimetric analysis; type: functional, cell-based; conditions: dose 1.0 µM
# T-cell [16] = test: Potency index, ratio of Parthenolide IC50 to test compound IC50 for antiproliferative activity against concanavalin A-stimulated C57BL/6 mouse T cells measured after 48 hrs by CCK8 assay; type: functional
# Pyruvate kinase PKM [17] = target: T1, Pyruvate kinase PKM; test: Covalent binding affinity to Cys423 residue of recombinant human PKM2 at 50 uM incubated for 60 mins by LC-MS/MS analysis; conditions: filed as activator
# Target sequence in this assay (P14618 2-531 limits assumed): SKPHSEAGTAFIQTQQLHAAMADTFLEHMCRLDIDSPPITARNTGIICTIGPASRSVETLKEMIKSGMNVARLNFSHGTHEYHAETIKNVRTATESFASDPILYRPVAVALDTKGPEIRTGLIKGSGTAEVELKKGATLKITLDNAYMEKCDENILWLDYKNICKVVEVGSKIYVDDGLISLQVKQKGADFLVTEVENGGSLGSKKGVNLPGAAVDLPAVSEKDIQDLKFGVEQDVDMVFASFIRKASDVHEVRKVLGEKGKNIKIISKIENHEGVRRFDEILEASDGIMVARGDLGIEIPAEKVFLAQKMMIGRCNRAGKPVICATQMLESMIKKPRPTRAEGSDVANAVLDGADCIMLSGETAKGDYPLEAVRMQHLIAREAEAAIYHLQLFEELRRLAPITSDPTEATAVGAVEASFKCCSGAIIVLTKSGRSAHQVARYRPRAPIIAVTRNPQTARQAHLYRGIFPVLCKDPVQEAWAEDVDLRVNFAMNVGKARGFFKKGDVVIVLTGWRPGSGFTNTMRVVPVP
# Regulatory T cell [18] = test: Inhibition of C57BL/6 mouse Regulatory T cells differentiation from CD4+ T cells assessed as change in Foxp3 mRNA expression at 0.1 to 1 uM incubated for 96 hrs by qPCR analysis; type: functional, cell-based; conditions: dose 0.1-1 µM
# Th17 [19] = test: Downregulation of total PKM2 expression in C57BL/6 mouse Th17 cells differentiated from CD4+ T cells at 0.1 to 1 uM incubated for 48 hrs by Western blot analysis; type: functional, cell-based; conditions: dose 0.1-1 µM
# Th17 [20] = test: Inhibition of C57BL/6 mouse Th17 cell differentiation from CD4+ T cells assessed as reduction in […] mRNA expression at 0.1 uM incubated for 96 hrs by qPCR analysis; type: functional, cell-based
# Mus musculus [21] = test: Antiinflammatory activity in DSS-induced colitis female C57BL/6 mouse model assessed as reduction in body weight loss at 5 to 10 mg/kg, ip administered for 12 days with subsequent treatment of DSS for 9 days followed by drinking water for 3 days; type: functional, organism-based; conditions: dose 5-10 mg/kg, time 12.0 day
# Mus musculus [22] = test: Antiinflammatory activity in DSS-induced colitis female C57BL/6 mouse model assessed as improvement in crypt deformation at 5 to 10 mg/kg, ip administered for 12 days with subsequent treatment of DSS for 9 days followed by drinking water for 3 days by H and E staining based analysis; type: functional, organism-based; conditions: dose 5-10 mg/kg, time 12.0 day
# Pyruvate kinase PKM [23] = target: T1, Pyruvate kinase PKM; test: Binding affinity to PKM2 (unknown origin) assessed as association rate constant (Ka) at 3.125 to 50 uM by SPR analysis; conditions: filed as activator, dose 3.125-50 µM
# Target sequence in this assay (P14618 2-531 limits assumed): as above
# [24] = Inhibition of C57BL/6 mouse Th17 cells differentiation from CD4+ T cells assessed as frequency of CD4+ IL-17A+ Th17 cells at 1 uM incubated for 96 hrs by flow cytometric analysis (reference value: 23.52 %); type: functional; parameters: scale not given: the % may be the effect or the level left
# Th17 [25] = test: Inhibition of C57BL/6 mouse Th17 cell differentiation from CD4+ T cells assessed as reduction in PFK1 mRNA level; type: functional, cell-based
# Th17 [26] = test: Inhibition of C57BL/6 mouse Th17 cell differentiation from CD4+ T cells assessed as reduction in PFK1 protein level; type: functional, cell-based
# [27] = target: Pyruvate kinase PKM (Mus musculus) (UniProt P52480); test: Inhibition of PKM2 dimer nuclear translocation in C57BL/6 mouse Th17 cells differentiated from CD4+ T cells assessed as decrease in PKM2 expression in nucleus at 0.1 to 1 uM incubated for 48 hrs by Western blot analysis; type: cell-based; conditions: dose 0.1-1 µM
# Mus musculus [28] = test: Antiinflammatory activity in DSS-induced colitis female C57BL/6 mouse model assessed as improvement in goblet cell loss at 5 to 10 mg/kg, ip administered for 12 days with subsequent treatment of DSS for 9 days followed by drinking water for 3 days by H and E staining based analysis; type: functional, organism-based; conditions: dose 5-10 mg/kg, time 12.0 day
# Th17 [29] = test: Inhibition of C57BL/6 mouse Th17 cell differentiation from CD4+ T cells assessed as reduction in HK2 protein level; type: functional, cell-based
# Mus musculus [30] = test: Antiinflammatory activity in DSS-induced colitis female C57BL/6 mouse model assessed as reduction in shortening of colon length at 5 mg/kg, ip administered for 12 days with subsequent treatment of DSS for 9 days followed by drinking water for 3 days; type: functional, organism-based; conditions: time 12.0 day
# [31] = target: Pyruvate kinase PKM (Mus musculus) (UniProt P52480); test: Activation of PKM2 in C57BL/6 mouse Th17 cells differentiated from CD4+ T cells assessed as induction of PKM2 tetramer formation at 0.1 to 1 uM incubated for 48 hrs by immunoblotting based protein cross linking assay; type: cell-based; conditions: filed as activator, dose 0.1-1 µM
# Th17 [32] = test: Inhibition of C57BL/6 mouse Th17 cell differentiation from CD4+ T cells assessed as reduction in IL-21 mRNA expression at 0.1 uM incubated for 96 hrs by qPCR analysis; type: functional, cell-based
# Th17 [33] = test: Inhibition of C57BL/6 mouse Th17 cell differentiation from CD4+ T cells assessed as reduction in lactate production at […] to 1 uM incubated for 48 hrs by colorimetric analysis; type: functional, cell-based
# [34] = Inhibition of C57BL/6 mouse Th17 cells differentiation from CD4+ T cells assessed as frequency of CD4+ IL-17A+ Th17 cells at 0.1 uM incubated for 96 hrs by flow cytometric analysis (reference value: 23.52 %); type: functional; parameters: scale not given: the % may be the effect or the level left
# T-cell [35] = test: Antiproliferative activity against concanavalin A-stimulated C57BL/6 mouse T cells measured after 48 hrs by CCK8 assay; type: functional, cell-based; conditions: C57BL/6, T-cell
# Th17 [36] = test: Inhibition of C57BL/6 mouse Th17 cell differentiation from CD4+ T cells assessed as reduction in Glut1 protein level; type: functional, cell-based
# Mus musculus [37] = test: Antiinflammatory activity in DSS-induced colitis female C57BL/6 mouse model assessed as improvement in inflammatory cell infiltration at 5 to 10 mg/kg, ip administered for 12 days with subsequent treatment of DSS for 9 days followed by drinking water for 3 days by H and E staining based analysis; type: functional, organism-based; conditions: dose 5-10 mg/kg, time 12.0 day
# Mus musculus [38] = test: Antiinflammatory activity in DSS-induced colitis female C57BL/6 mouse model assessed as reduction in disease activity index score at 5 to 10 mg/kg, ip administered for 12 days with subsequent treatment of DSS for 9 days followed by drinking water for 3 days; type: functional, organism-based; conditions: dose 5-10 mg/kg, time 12.0 day
# Sequence of Pyruvate kinase PKM (Mus musculus) (P52480 whole entry): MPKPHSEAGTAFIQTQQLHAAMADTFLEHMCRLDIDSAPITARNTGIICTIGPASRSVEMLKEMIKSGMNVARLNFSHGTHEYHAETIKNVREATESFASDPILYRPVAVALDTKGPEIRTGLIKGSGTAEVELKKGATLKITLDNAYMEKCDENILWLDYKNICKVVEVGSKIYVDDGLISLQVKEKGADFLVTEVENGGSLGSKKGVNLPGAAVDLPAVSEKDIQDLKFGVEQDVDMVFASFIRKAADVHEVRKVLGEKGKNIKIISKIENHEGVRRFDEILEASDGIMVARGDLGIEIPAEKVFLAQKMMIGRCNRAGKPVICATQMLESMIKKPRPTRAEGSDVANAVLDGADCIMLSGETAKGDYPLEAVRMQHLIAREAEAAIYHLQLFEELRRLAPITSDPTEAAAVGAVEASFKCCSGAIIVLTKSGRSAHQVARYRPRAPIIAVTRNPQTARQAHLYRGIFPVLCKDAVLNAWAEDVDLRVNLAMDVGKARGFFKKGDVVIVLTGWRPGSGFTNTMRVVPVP
smiles,measurement,setting,value
C=C1C(=O)O[C@H]2[C@H]1CC/C(COC(F)(F)F)=C\CC[C@@]1(C)O[C@@H]21,inhibition,Th17 [1],Active
same,Activity,[2],25.4%
same,inhibition,Th17 [3],Active
same,Activity,[4],24.84%
same,Activity,[5],14.67%
same,Activity,Th17 [6],inactive
same,inhibition,Th17 [7],Active
same,AC50,Pyruvate kinase PKM [8],0.144 µM
same,Activity,[9],Active
same,inhibition,Regulatory T cell [10],inactive
same,inhibition,Th17 [11],Active
same,Activity,[12],23.97%
same,Kd,Pyruvate kinase PKM [13],2.48 µM
same,Kd,Pyruvate kinase PKM [14],0.028 s⁻¹
same,inhibition,Th17 [15],Dose-Dependent Effect
same,Ratio IC50,T-cell [16],5
same,Activity,Pyruvate kinase PKM [17],Active
same,inhibition,Regulatory T cell [18],inactive
same,Activity,Th17 [19],Active
same,inhibition,Th17 [20],Active
same,Activity,Mus musculus [21],Active
same,Activity,Mus musculus [22],Active
same,Ka,Pyruvate kinase PKM [23],1.12 10^4/Ms
same,Activity,[24],9.84%
same,inhibition,Th17 [25],Active
same,inhibition,Th17 [26],Active
same,inhibition,[27],Active
same,Activity,Mus musculus [28],Active
same,inhibition,Th17 [29],Active
same,Activity,Mus musculus [30],Active
same,Activity,[31],Active
same,inhibition,Th17 [32],Active
same,inhibition,Th17 [33],Active
same,Activity,[34],17.11%
same,IC50,T-cell [35],0.43 µM
same,inhibition,Th17 [36],Active
same,Activity,Mus musculus [37],Active
same,Activity,Mus musculus [38],Active
